We go through seven molecules from patent US20080119412A1, “Polypeptides for Modulating Binding of Trp Channel Proteins and Trp- Associated Proteins” (NoNO Inc., priority 2003, published 2008).

One assay addresses T1, TIP1 d1 (Homo sapiens, UniProt O14907).
T1 construct: made in house; host or cells: E. coli (DH5alpha, BL21 or JM109)
T1 sequence (O14907 14-116): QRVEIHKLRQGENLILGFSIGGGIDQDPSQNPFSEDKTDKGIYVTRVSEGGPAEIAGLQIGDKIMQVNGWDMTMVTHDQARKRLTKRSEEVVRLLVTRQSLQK
In words: G3 assay titration, GST-PDZ fusion / biotinylated peptide. Format: binding. The method, then:
(§1) The G3 assay is identical to the G0 assay with the following exceptions. The peptides are typically present at 0.1 μM rather than 20 μM. The peptides are also pre-incubated with the HRP-streptavidin prior to adding to the assay plate. In the G0 assay, free peptide is incubated with the PDZ proteins prior to the addition of the HRP-streptavidin. Thus, for the G0 assay one can lose signal if the bound peptide dissociates from the PDZ protein prior to the addition of the HRP-streptavidin. In the G3 modified assay the HRP-streptavidin/peptide complex is added to the plate in one step, thus increasing the likelihood that all the bound peptide will be bound to HRP-streptavidin. The G3 modified assay increases the chance of observing weak interactions.
(§2) This example describes assays to identify binding between TRPM7 and PDZ domains. GST-PDZ fusions are produced that each contain an entire PDZ domain (or multiple PDZ domains), the collection encompassing approximately 90% of all PDZ domains identified in the human genome. (See Table 5 and Section V (PDZ Proteins and PL Protein Interactions Disclosure). Biotinylated peptide corresponding to 11 residues of Tat coupled to the C-terminal 9 amino acids of TRPM7 ([…]; SEQ ID NO:258) is synthesized and purified by HPLC.
(§3) • Nunc MaxiSorp 96 well Immuno-plate, Nunc • PBS pH 7.4 (phosphate buffered saline, 8 g NaCl, 0.29 g KCl, 1.44 g Na2HPO4, 0.24 g KH2PO4, add H2O to 1 liter and pH 7.4; 0.2 μm filter) • Assay Buffer: 2% BSA in PBS (20 g of bovine serum albumin per liter PBS, fraction V, ICN Biomedicals, cat#IC15142983 • Goat anti-GST polyclonal Ab, stock 5 mg/ml, stored at 4° C., Amersham Pharmacia cat#27-4577-01 • Dilute 1:1000 in PBS, final concentration 5 μg/ml. • HRP-Streptavidin, 2.5 mg/2 ml stock stored at 4° C., Zymed cat#43-4323, dilute 1:2000 into Assay buffer, final concentration of […] • Wash Buffer, PBS • Biotinylated peptides (HPLC purified, stock solution stored in −20° C. freezer) • GST-PRISM proteins (stock stored at −80° C., after 1st thaw store in −10° C. freezer) • TMB (3,3′,5,5′, teramethylbensidine), tablets, Sigma cat.#T5525 • Per plate, dissolve 1 tablet in 1 ml DMSO, add 9 ml Citrate/Phosphate buffer pH 5.4 and 2 μL H2O2 • 0.1 M H2SO4, Sigma cat.#S1526 • 12-w multichannel pipettor & tips • 50 ml reagent reservoirs, Costar#4870 • 50, 15 ml polypropylene conical tubes • Costar Transtar 96 Costar #7605 • Transtar 96 Cartridge Costar #7610 • Molecular Devices microplate reader (450 & 650 nm filters) with SoftMax Pro software *When using reagents stored at or 4° C. or −20° C., remove & keep on ice
(§4) • 1. Coat plate with 100 μl of 5 μg/ml anti-GST, overnight at 4° C. • 2. Dump contents of plate & out tap dry on paper towels • 3. Block with 200 μl Assay Buffer for 2 hrs at room temperature • 4. Prepare proteins at 5 μg/ml in Assay Buffer • 5. Wash 3× with cold PBS (4° C.), avoiding letting the plates dry out • 6. Add proteins at 50 μl per well, incubate 1 to 2 hrs at 4° C. • 7. Prepare peptides to desired concentration in Assay Buffer • 8. Wash 3× with cold PBS (4° C.), avoiding letting the plates dry out • 9. Add HRP-Streptavidin/peptide complex [prepared by incubating for 20 minutes at room temperature HRP-Streptavidin (1:2000) with the desired biotin-peptide concentration for 20 minutes at room temperature] at 50 μl per well on ice • 10. Place at room temperature for exactly 30 minutes • 11. Promptly wash 5× with PBS at room temperature • 12. Add 100 μl/well TMB substrate (write time on plate) • 13. Incubate in dark at room temperature for a maximum of 30 minutes • 14. Read plate at 25 minutes (650 nm), optional • 15. Stop reaction with 100 μl of 0.18 M H2SO4, 30 minutes after adding TMB • Take last reading at 450 nm soon after stopping reaction
The G3 assay was performed on a subset of the PDZ domains as in Example II except that the concentration of peptide was 0.002 μM, […], 0.1 μM, 0.2 μM, 1 μM, and 2 μM. Data was fitted to the equation: […]

The next assay concerns the target TRPM2 (Homo sapiens, UniProt O94759). As to conditions: binding to carboxy-terminal NUDT9 Nudix hydrolase domain; read-out: EC50, gating of TRPM2 channel; cited from earlier work.
The subject of assay [1] is neurons. In words: Oxygen-glucose deprivation (OGD) of neurons: ROS production, calcium uptake, cell death. Format: cell-based. As to conditions: prolonged OGD, FIG. 7. The procedure: The fraction of dead cells was determining by dividing the number of neurons expressing GFP which became stained with propidium iodide 20 h after OGD by the number of neurons expressing GFP at the beginning of the experiment. Data for each culture was obtained from counting cells in 3 high power microscope fields per experiment.

The target in another assay is TRPM7 (Homo sapiens, UniProt Q96QT4). As to conditions: intracellular free; cited from earlier work.
For assay [2], the target named is T2, INADL d3 (Homo sapiens, UniProt Q8NI35).
T2 construct: made in house; host or cells: E. coli (DH5alpha, BL21 or JM109)
T2 sequence (Q8NI35 with tags, fused parts or gaps): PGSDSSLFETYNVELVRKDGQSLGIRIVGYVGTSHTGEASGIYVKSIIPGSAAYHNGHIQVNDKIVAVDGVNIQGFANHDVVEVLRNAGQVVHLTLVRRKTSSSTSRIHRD
In words: G3 assay titration, GST-PDZ fusion / biotinylated peptide. Format: binding. The method, then:
as §1, §2, §3, §4
(§5) The G3 assay was performed using 0.1 μM peptide representing 11 amino acids of Tat fused to the final 9 amino acids of TRPM7 ([…]; SEQ ID NO:258). […]

Assay [3] has as its target T3, ZO-1 d2 (Homo sapiens, UniProt Q07157, DEL264-264).
T3 construct: made in house; host or cells: E. coli (DH5alpha, BL21 or JM109)
T3 sequence (Q07157 with tags, fused parts or gaps DEL264-264): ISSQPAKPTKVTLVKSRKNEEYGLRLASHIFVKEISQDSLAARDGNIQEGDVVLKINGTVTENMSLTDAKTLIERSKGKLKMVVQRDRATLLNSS
The description is as above. It is filed as binding. The method, then: as §1, §2, §3, §4, §5

The target of assay [4] is T2, INADL d3. The assay can be described thus: G assay, peptide binding to GST-PDZ fusion (Table 11). The note with it: Table 11, titrations or binding assays.
Description: (§6) The binding of labeled PL peptide (e.g., as listed in TABLE 2 and TABLE 4) to this surface is then measured. In a preferred embodiment, the assay is carried out as follows:
(§7) (1) A PDZ-domain polypeptide is bound to a surface, e.g. a protein binding surface. In a preferred embodiment, a GST/PDZ fusion protein containing one or more PDZ domains is bound to a polystyrene 96-well plate. […] In one embodiment, the GST/PDZ fusion protein is bound via an anti-GST antibody that is coated onto the 96-well plate. Adequate binding to the plate can be achieved when:
(§8) (2) Biotinylated PL peptides are allowed to react with the surface by addition of 50 μl per well of 20 μM solution of the biotinylated peptide in PBS/BSA for 10 minutes at 4° C., followed by an additional 20 minute incubation at 25° C. The plate is washed 3 times with ice cold PBS.
(§9) (3) The binding of the biotinylated peptide to the GST/PDZ fusion protein surface can be detected using a variety of methods and detectors known to one of skill in the art. In one embodiment, 100 μl per well of 0.5 μg/ml streptavidin-horseradish peroxidase (HRP) conjugate dissolved in BSA/PBS is added and allowed to react for 20 minutes at 4° C. The plate is then washed 5 times with 50 mM Tris pH 8.0 containing 0.2% Tween 20, and developed by addition of 100 μl per well of HRP-substrate solution (TMB, Dako) for 20 minutes at room temperature (RT). The reaction of the HRP and its substrate is terminated by addition of 100 μl per well of 1 M sulfuric acid, and the optical density (O.D.) of each well of the plate is read at 450 um.
(§10) (4) Specific binding of a PL peptide and a PDZ domain polypeptide is determined by comparing the signal from the well(s) in which the PL peptide and PDZ domain polypeptide are combined, with the background signal(s). […] Typically a specific or selective reaction will be at least twice background signal, more typically more than 5 times background, and most typically 10 or more times the background signal. […] Correspondingly, a statistical test (e.g. a T-test) comparing repeated measurements of the signal with -repeated measurements of the background will result in a p-value <0.05, more typically a p-value <0.01, and most typically a p-value <0.001 or less. As noted, in an embodiment of the G assay, the signal from binding of a given PL peptide to immobilized (surface bound) GST polypeptide alone is one suitable negative control (sometimes referred to as B1). Because all measurement are done in multiples (i.e. at least duplicate) the arithmetic mean (or, equivalently, average.) of several measurements is used in determining the binding, and the standard error of the mean is used in determining the probable error in the measurement of the binding. The standard error of the mean of N measurements equals the square root of the following: the sum of the squares of the difference between each measurement and the mean, divided by the product of (N) and (N−1). Thus, in one embodiment, specific binding of the PDZ protein to the platebound peptide is determined by comparing the mean signal (“mean S”) and standard error of the signal (“SE”) for a particular PL-PDZ combination with the mean B1.
Assay [5] has as its target T3, ZO-1 d2. The assay is described as above. The note with it: Table 11, titrations or binding assays.
Description: as §6, §7, §8, §9, §10
Assay [6] deals with neurons. In words: Neuronal survival 20 h after NMDA challenge (FIG. 14). Format: cell-based. The note with it: 20 h after 1 h NMDA challenge; peptide applied immediately after the NMDA challenge. The method, then: The sequence of Tat-9cTRPM7 is: [[…] or [[…]-[…]], whereby the first 11 residues correspond to the cell membrane transduction domain of the human immunodeficiency virus type 1 (HIV-1) Tat protein and the last 9 residues correspond to the last 9 amino acids of the C-terminus of human TRPM7 (accession Q96QT4). […] (A) Neuronal survival at 20 h in the indicated concentrations of Tat-9cTRPM7 in the absence of excitotoxic challenge. (B) Neuronal survival 20 h after challenging the cultures for 1 h with the indicated concentration of NMDA. Tat-9cTRPM7 was applied immediately after the NMDA challenge.
The sequence of Tat-9cTRPM7 is: [[…]-[…]; SEQ ID NO:258], whereby the first 11 residues correspond to the cell-membrane transduction domain of the human immunodeficiency virus type 1 (HIV-1) Tat protein and the last 9 residues correspond to the last 9 amino acids of the C-terminus of human TRPM7 (accession Q96QT4). (A) Neuronal survival at 20 h in the indicated concentrations of Tat-9cTRPM7 in the absence of excitotoxic challenge. (B) Neuronal survival 20 h after challenging the cultures for 1 h with the indicated concentration of NMDA. Tat-9cTRPM7 was applied immediately after the NMDA challenge.

pEC50: −log10 of the molar value. Residues, ends and D or L forms follow the SMILES beside them. No end group written: not given here. *: point of attachment. Biotin = O=C1N[C@H]2[C@H](CS[C@H]2CCCCC(=O)*)N1 Some results are limits rather than exact numbers.

Sequence of TRPM2 (O94759 whole entry, the tested form may be a part): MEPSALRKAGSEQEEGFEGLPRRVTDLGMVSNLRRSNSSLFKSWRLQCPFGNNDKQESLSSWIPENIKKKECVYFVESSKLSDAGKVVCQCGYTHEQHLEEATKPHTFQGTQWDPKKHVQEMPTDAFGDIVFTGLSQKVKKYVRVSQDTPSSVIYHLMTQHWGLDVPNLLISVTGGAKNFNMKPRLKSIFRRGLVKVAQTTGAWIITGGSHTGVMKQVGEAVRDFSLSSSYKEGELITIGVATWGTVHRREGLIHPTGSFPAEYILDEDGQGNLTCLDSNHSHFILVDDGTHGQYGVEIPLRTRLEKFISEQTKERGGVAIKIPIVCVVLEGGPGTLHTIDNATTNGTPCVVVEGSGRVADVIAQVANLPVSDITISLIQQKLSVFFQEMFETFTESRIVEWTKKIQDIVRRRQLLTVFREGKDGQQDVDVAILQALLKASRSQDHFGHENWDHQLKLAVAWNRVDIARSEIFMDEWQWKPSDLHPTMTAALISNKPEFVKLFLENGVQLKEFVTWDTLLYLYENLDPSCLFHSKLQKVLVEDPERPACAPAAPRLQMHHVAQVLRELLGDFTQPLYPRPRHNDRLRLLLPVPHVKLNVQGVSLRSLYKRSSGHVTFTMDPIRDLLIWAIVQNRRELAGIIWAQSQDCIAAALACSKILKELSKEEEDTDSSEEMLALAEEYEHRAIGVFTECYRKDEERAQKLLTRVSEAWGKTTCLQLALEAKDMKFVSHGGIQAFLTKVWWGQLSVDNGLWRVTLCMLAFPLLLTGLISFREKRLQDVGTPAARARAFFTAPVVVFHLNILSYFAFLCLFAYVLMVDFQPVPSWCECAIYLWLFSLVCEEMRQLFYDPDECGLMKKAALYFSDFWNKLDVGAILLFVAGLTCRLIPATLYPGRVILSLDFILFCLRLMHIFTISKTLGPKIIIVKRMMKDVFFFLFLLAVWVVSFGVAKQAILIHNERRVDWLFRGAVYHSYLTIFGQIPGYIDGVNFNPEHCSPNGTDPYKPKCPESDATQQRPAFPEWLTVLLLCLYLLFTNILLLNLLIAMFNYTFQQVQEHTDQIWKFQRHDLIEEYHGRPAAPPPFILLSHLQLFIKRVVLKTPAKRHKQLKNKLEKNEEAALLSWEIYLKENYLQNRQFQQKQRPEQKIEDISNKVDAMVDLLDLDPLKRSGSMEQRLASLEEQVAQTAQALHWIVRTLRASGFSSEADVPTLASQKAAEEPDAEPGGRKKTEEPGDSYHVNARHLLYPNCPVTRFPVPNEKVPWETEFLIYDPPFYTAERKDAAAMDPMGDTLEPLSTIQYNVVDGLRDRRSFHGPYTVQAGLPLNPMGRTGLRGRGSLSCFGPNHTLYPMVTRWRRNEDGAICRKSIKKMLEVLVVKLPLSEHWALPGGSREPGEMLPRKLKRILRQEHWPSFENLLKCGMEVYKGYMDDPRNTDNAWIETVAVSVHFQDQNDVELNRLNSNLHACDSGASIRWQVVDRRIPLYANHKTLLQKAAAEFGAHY
Sequence of TRPM7 (Q96QT4 whole entry): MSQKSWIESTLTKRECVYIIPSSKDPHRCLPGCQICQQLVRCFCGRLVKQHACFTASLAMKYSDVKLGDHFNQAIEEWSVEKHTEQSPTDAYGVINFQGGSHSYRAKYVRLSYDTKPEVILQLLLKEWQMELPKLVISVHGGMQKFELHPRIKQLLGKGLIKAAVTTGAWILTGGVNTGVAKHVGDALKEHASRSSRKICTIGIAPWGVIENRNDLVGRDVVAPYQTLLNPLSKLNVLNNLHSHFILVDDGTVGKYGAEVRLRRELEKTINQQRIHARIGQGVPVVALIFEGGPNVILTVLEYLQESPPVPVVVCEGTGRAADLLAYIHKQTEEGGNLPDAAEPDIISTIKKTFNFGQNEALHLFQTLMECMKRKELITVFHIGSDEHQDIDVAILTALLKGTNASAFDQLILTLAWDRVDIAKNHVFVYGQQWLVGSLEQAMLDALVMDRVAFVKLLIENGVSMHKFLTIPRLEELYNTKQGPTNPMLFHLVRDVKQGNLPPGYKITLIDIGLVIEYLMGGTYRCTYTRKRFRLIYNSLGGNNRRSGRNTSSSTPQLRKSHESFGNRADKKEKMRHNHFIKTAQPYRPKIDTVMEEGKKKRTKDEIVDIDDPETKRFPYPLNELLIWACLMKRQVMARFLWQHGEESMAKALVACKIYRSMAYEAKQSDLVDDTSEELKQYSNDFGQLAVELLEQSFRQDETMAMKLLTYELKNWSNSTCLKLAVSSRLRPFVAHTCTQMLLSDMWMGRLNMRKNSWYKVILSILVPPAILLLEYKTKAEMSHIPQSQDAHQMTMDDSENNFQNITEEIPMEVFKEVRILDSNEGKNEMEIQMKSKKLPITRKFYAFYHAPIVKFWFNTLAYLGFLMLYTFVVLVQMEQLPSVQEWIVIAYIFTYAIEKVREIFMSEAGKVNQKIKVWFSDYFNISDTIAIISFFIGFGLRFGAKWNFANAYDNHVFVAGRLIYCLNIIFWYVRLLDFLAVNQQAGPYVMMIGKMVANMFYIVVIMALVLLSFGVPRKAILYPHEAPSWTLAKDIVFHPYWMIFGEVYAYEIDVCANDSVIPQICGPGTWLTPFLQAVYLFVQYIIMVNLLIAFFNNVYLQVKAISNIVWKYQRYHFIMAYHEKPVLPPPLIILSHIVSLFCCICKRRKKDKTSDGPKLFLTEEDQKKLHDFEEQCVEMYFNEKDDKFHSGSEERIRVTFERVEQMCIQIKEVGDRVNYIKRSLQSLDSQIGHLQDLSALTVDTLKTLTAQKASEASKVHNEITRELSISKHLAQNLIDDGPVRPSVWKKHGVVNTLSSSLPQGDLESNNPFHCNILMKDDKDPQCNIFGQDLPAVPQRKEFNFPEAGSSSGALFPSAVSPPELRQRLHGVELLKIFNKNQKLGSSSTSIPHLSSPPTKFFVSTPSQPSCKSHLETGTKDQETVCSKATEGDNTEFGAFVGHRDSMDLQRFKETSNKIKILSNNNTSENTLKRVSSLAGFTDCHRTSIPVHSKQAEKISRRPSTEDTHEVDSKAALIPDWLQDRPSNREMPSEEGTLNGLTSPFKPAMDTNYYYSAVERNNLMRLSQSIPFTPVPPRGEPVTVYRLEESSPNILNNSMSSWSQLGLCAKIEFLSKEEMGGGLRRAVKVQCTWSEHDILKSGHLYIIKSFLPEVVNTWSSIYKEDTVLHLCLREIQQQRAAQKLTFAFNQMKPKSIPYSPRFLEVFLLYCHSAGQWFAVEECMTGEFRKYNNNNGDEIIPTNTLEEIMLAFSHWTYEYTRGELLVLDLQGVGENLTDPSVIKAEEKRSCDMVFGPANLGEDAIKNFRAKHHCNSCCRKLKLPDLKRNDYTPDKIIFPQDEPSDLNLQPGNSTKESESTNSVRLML

By pEC50 is commonly meant the EC50 on a negative log10 scale, so that one unit is a factor of ten. Consider `CC(C)[C@H](NC(=O)[C@H](CCC(=O)O)NC(=O)[C@@H](NC(=O)[C@H](CCC(=O)O)NC(=O)[C@H](CCCNC(=N)N)NC(=O)[C@H](Cc1ccccc1)NC(=O)[C@H](Cc1c[nH]cn1)NC(=O)[C@H](CCCCN)NC(=O)[C@H](CCC(=O)O)NC(=O)[C@H](CCCNC(=N)N)NC(=O)[C@H](CCCNC(=N)N)NC(=O)[C@H](CCCNC(=N)N)NC(=O)[C@H](CCC(N)=O)NC(=O)[C@H](CCCNC(=N)N)NC(=O)[C@H](CCCNC(=N)N)NC(=O)[C@H](CCCCN)NC(=O)[C@H](CCCCN)NC(=O)[C@H](CCCNC(=N)N)NC(=O)CNC(=O)[C@H](Cc1ccc(O)cc1)NC(=O)CCCC[C@@H]1SC[C@@H]2NC(=O)N[C@@H]21)[C@@H](C)O)C(=O)O` [AA353] (Biotin-YGRKKRRQRRREKHFRETEV-OH), for which the pEC50 on TIP1 d1 was more than 8.70.
For `Nc1ncnc2c1ncn2[C@@H]1O[C@H](COP(=O)(O)OP(=O)(O)OC[C@H]2OC(O)[C@H](O)[C@@H]2O)[C@@H](O)[C@H]1O` (stereo partly drawn) [ADP ribose], the pEC50 at TRPM2 is 4.00.
As for `[Gd+3]` [Gd^3+], the survival of neurons result with neurons [1] is reported as “permit survival of neurons destined to die from prolonged OGD”.
`[Mg+2]` [Mg^2+]: at TRPM7, the “concentration inhibiting TRPM7” value is on record as 0.6 mM.
Consider `C[C@H](NC(=O)[C@H](Cc1c[nH]c2ccccc12)NC(=O)[C@H](Cc1ccc(O)cc1)NC(=O)[C@H](CCCCN)NC(=O)[C@H](CCCNC(=N)N)NC(=O)[C@H](CC(=O)O)NC(=O)[C@@H](NC(=O)[C@H](CCCNC(=N)N)NC(=O)[C@H](CO)NC(=O)[C@H](CCCNC(=N)N)NC(=O)[C@H](CCCNC(=N)N)NC(=O)[C@H](CCCNC(=N)N)NC(=O)[C@H](CCC(N)=O)NC(=O)[C@H](CCCNC(=N)N)NC(=O)[C@H](CCCNC(=N)N)NC(=O)[C@H](CCCCN)NC(=O)[C@H](CCCCN)NC(=O)[C@H](CCCNC(=N)N)NC(=O)CNC(=O)[C@H](Cc1ccc(O)cc1)NC(=O)CCCC[C@@H]1SC[C@@H]2NC(=O)N[C@@H]21)[C@@H](C)O)C(=O)O` [Peptide 1832] (Biotin-YGRKKRRQRRRSRTDRKYWA-OH; C-terminus assumed), for which the pEC50 at INADL d3 [2] was 6.70; at ZO-1 d2 [3], more than 7.70. For the same molecule, the “ODmax (450 nm)” value at INADL d3 [2] (Table 10, titration of peptides with INADL d3) came out at 0.60; at ZO-1 d2 [3] (Table 10, titration of peptides with ZO-1 d2) it was 2.10. Further, the figures for the PDZ domain bound result at INADL d3 [4] and at ZO-1 d2 [5] were “INADL D3” and “ZO-1 D2”, respectively.
Regarding `NC(=O)c1ccc[n+]([C@@H]2O[C@H](COP(=O)([O-])OP(=O)(O)OC[C@H]3O[C@@H](n4cnc5c(N)ncnc54)[C@H](O)[C@@H]3O)[C@@H](O)[C@H]2O)c1` [nicotinamide adenine dinucleotide], at TRPM2, the pEC50 is 3.00.
As to YGRKKRRQRRRSTNSVRLML [Tat-9cTRPM7], in the assay on neurons [6], the Neuronal survival entry was “enhanced survival”.
